The values below come from paper PMC10388363, “Novel 1,4-Dihydropyridines as Specific Binders and Activators of SIRT3 Impair Cell Viability and Clonogenicity and Downregulate Hypoxia-Induced Targets in Cancer Cells” (Journal of Medicinal Chemistry, 2023).

Like-named read-outs stand apart in the source and are kept apart here.

For series [1], the system named is HIF-1α, EPAS-1, and CA-IX protein expression in CAL-62. The experiment in a line: Western blot of HIF-1α, EPAS-1 and CA-IX in CAL-62 cells under hypoxia. The note with it: CAL-62, 50 μM, 48 h, hypoxia. Type of series: cell-based. The procedure:
(§1) Based on these findings, we decided to assess the ability of the SIRT3 activators 3a–d to impair HIF-1α, EPAS-1, and CA-IX protein expression in CAL-62 (Figure 10A–F) and MDA-MB-231 (Figure 11A–F) cell lines treated with the compounds at 50 μM for 48 h and under hypoxia conditions.
(§2) Breast cancer cell line MDA-MB-231, anaplastic thyroid cancer cell line CAL-62 and human keratinocytes HaCaT were purchased from ATCC and were cultured in RPMI 1640 medium (R0883 Sigma Aldrich-MERCK) (MDA-MB-231 and CAL-62) or DMEM medium (11965092, Gibco) supplemented with 10% fetal bovine serum (Sigma-Aldrich-MERCK, F9665), 2 mM glutamine (G7513; Sigma-Aldrich-MERCK), 100 units/mL penicillin and 0.1 mg/mL streptomycin (P0781; Sigma-Aldrich-MERCK). Adherent cells were detached by Trypsin–EDTA solution (TA049; Sigma-Aldrich-MERCK). Cells were maintained at 37 °C in humidified incubator with 5% CO2. Cells were treated with […] (CoCl2) (Merck; C8661) dissolved in distilled, sterile water for 24 h to induce hypoxia (200 μM). Hypoxic and normoxic cells were also treated with 10/50 μM of the indicated compounds (dissolved in DMSO) for 48 h, maintaining the CoCl2 in the culture medium for hypoxic conditions. SIRT3 inhibitor 3-TYP was dissolved in DMSO and added to a final concentration of 1 μM for 24 and/or 48 h.
(§3) The following antibodies were used in this study: ACTB (Merck; A5316), HIF1-α (Cell Signaling; 14179), HIF2/EPAS-1 (Santa Cruz Biotechnology sc-13596), HXKII (Santa Cruz Biotechnology sc-6521), CAIX (Novus Biotechnology NB100-417), SIRT3 (Cell Signaling; 2627S), MnSOD (Abcam ab13533), MnSOD K68 (Abcam ab137037), MnSOD K122 (Abcam ab214675), peroxidase-conjugated AffiniPure Goat Anti-Rabbit IgG (H + L) (Jackson ImmunoResearch; 111-035-003), and peroxidase-conjugated AffiniPure Goat Anti-Mouse IgG (H + L) (Jackson ImmunoResearch; 115-035-062).
(§4) Treated and untreated cells were collected and centrifuged at 3000 rpm for 5 min. After removing the supernatant, cells were lysed in 70 μL of lysis buffer containing: 50 mM Tris-Cl (Merck; 93352), 250 mM sodium chloride (NaCl, Merck; S7653), 5 mM ethylenediaminetetraacetic acid (EDTA; Merck; E6758), 0.1% Triton X-100 and 0.1 mM dithiothreitol (Merck; D9163) plus 1 mM phenylmethylsulfonyl fluoride (PMSF, Merck; 93482), protease inhibitor cocktail (PI; Merck; P8340), 1 mM sodium orthovanadate (NA3VO4, Merck; S6508), and 10 mM sodium fluoride (NaF, Merck; 201154) (lysis buffer). After 30 min on ice, samples were centrifuged at 13,000 rpm for 10 min at 4 °C, and the supernatants collected. Protein concentration was determined by the Bradford assay (Bio-Rad; 500-0205). The equivalent of 15 or 50 μg of protein was boiled for 5 min, electrophoresed onto denaturing SDS-PAGE gel, and transferred onto a […] nitrocellulose membrane (Bio-Rad; 162-0115). After blocking with 5% milk, membranes were incubated with the appropriate primary antibody overnight. The next day, after three washes with 0.1% Tween 20 (Merck; P9416) in PBS (PBST) for 30 min at rt, membranes were incubated with the appropriate secondary antibody for 1 h at rt. After three more washes in PBST, the detection of the relevant protein was assessed by enhanced chemiluminescence (Lite Ablot TURBO, Euro-Clone; EMP012001). Densitometric analysis of the bands, relative to ACTB, was performed using ImageJ Software v1.51 (NIH, Bethesda, MD, USA).

For the next series, the system named is MDA-MB-231 cells. The experiment in a line: Cell viability / cell death, trypan blue exclusion, MDA-MB-231. The note with it: for IC50: MDA-MB-231, 48 h, read-out: IC50 reducing cell viability. Format: cell-based, human. How it is done:
Afterward, the selected compounds 3a–d were assayed at 50 μM for 24 and 48 h in CAL-62 and MDA-MB-231 cells to assess their ability to impair the cell viability and colony formation in either normoxia or hypoxia-induced condition, the latter obtained by adding a 200 μM cobalt chloride solution, as described in previous reports[69] (Figure 8). Most cancer cells, mainly solid types, are known to have an altered metabolism due to hypoxia, a non-physiological level of oxygen tension, which contributes to therapy resistance by causing cellular quiescence.[70] Moreover, hypoxic cancer cells can induce several factors that lead to cell proliferation and colony formation.[71]
as §2
(§5) Cell viability was assessed by the trypan blue exclusion assay. At the end of treatments, cells were harvested and stained with 0,4% trypan blue (Merck; T8154). The cell suspension was applied to a hemocytometer and counted with phase contrast microscopy (NIKON EclipseTE2000U, Nikon Netherlands, Amsterdam, The Netherlands).

The subject of series [2] is HIF-1α, EPAS-1, and CA-IX protein expression in MDA-MB-231. Description: Western blot of HIF-1α, EPAS-1 and CA-IX in MDA-MB-231 cells under hypoxia. Type of series: cell-based, human. Conditions: MDA-MB-231, 50 μM, 48 h, hypoxia. The procedure: as §1, §2, §3, §4
A further series concerns HaCaT cells. The experiment in a line: Cell viability / cell death in healthy HaCaT cells. Conditions: for toxicity against healthy HaCaT cells: 5, 10, and 25 μM, 24 and 48 h; for Cell death (%) T24 / Cell death (%) T48: HaCaT; for Cell death (%) T24: 24 h; for Cell death (%) T48: 48 h. Format: cell-based, human. How it is done: as §2, with “Hypoxic and normoxic cells were also treated with 10/50 μM of the indicated compounds (dissolved in DMSO) for 48 h, maintaining the CoCl2 in the culture medium for hypoxic conditions.” left out
as §5

Setting [3] is: MDA-MB-231, 50 μM, 48 h, hypoxia.
Setting [4] is: MDA-MB-231, 50 μM, 48 h, normoxia.

On to `CCOC(=O)C1=CN(C(=O)c2cccc(OC)c2)C=C(C(=O)OCC)C1c1ccccc1` [Compound 3a, Diethyl 1-(3-methoxybenzoyl)-4-phenyl-1,4-dihydropyridine-3,5-dicarboxylate], for which, in series [1], the CA-IX protein expression entry is given as “significantly downregulated”. The reduction viability is on record as 11% in the series on MDA-MB-231 cells (setting [3]) and 60% with MDA-MB-231 cells (setting [4]).
For `CCOC(=O)C1=CN(C(=O)c2ccc(OC)c(OC)c2)C=C(C(=O)OCC)C1c1ccccc1` [Compound 3c, Diethyl 1-(3,4-dimethoxybenzoyl)-4-phenyl-1,4-dihydropyridine-3,5-dicarboxylate], in series [2], the EPAS-1 protein levels entry is “significantly reduced” and the HIF-1α protein levels entry was “significantly reduced”. Besides, the “toxicity against healthy HaCaT cells” value in the series with HaCaT cells is given as “negligible toxicity”. Also, the EPAS-1 protein expression entry in series [1] is “downregulated”.
Turning to `CCOC(=O)C1=CN(C(=O)c2cc(OC)cc(OC)c2)C=C(C(=O)OCC)C1c1ccccc1` [Compound 3d, Diethyl 1-(3,5-dimethoxybenzoyl)-4-phenyl-1,4-dihydropyridine-3,5-dicarboxylate], the values for the CA-IX protein expression result in series [2] and in series [1] were “most potent” and “significantly downregulated”, respectively. The EPAS-1 protein levels entry in series [2] is “significantly reduced”. Moreover, the HIF-1α protein levels result in series [2] is recorded as “significantly reduced”. Further, in the series with HaCaT cells, the “toxicity against healthy HaCaT cells” value is “some degree of cell viability reduction and cell death only after 48 h treatment and at higher concentrations (10 and 25 μM)”. The “Cell death (%) T24” value in the series on HaCaT cells (5 μM) is listed as 3,9%; with HaCaT cells (10 μM), 8,4%; with HaCaT cells (25 μM), 15,3%. For the same molecule, the “Cell death (%) T48” value with HaCaT cells (5 μM) is 16,1%; with HaCaT cells (10 μM) it was 33,9%; with HaCaT cells (25 μM), 47,3%; in the series with MDA-MB-231 cells (MDA-MB-231, 10 μM, 48 h), 63,6%. Also, the EPAS-1 protein expression result in series [1] is reported as “downregulated”. In series [1], the HIF-1α protein expression entry is “decrease”. Further, the IC50 is 10.6 µM in the series with MDA-MB-231 cells (Homo sapiens, hypoxia) and 3.64 µM in the series on MDA-MB-231 cells (Homo sapiens, normoxia). The viability at 10 µM in the series on MDA-MB-231 cells (Homo sapiens, MDA-MB-231, 10 μM, 48 h, read-out: Cell viability (%) T48) was 36.3%. For the same molecule, the reduction in cell viability (%) at 50 µM with MDA-MB-231 cells (Homo sapiens, MDA-MB-231, 50 μM, 24 h, normoxia, read-out: viability impairment) amounted to 34%. Further, the reduction viability in the series with MDA-MB-231 cells (setting [3]) and in the series with MDA-MB-231 cells (setting [4]) was 75% throughout.

Broadly, the IC50 is the concentration that inhibits the measured activity by half. As usually defined, the viability is a per cent measure of how many cells are alive, often set against a control.
